Measurements reported in patent publication US12054451B1, “Water soluble platinum (II) amino acid schiff base as an antitumor drug” (KING FAISAL UNIVERSITY, priority 2024, dated 2024).

Test system: HepG-2 (Hepatocellular carcinoma)
Assay: SRB (sulforhodamine-B-stain) anticancer assay, HepG-2
Format: cell-based
Settings: Homo sapiens, HepG2, HepG-2 cells, 48 hours at 37° C., absorbance 564 nm
Protocol: Investigation for the bio-reactivity of PtL, as an antitumor candidate, was achieved versus well documented human cancer cell lines, as three cancers entitled HepG2, MCF-7, and HCT-116, using the simplest tool SRB (sulforhodamine-B-stain). In particular, the most popular anticancer referenced drug (vinblastine) was used in the anticancer assay (the inhibited action of the cancer cells) to compare its bio-reactivity versus that one of PtL. The antitumor reactivity of PtL was evaluated by IC50 concentrations (half effected concentration in μM) for inhibiting the growth of the tumor and normal cell lines of human in which IC50 concentrations were obtained from Eq. 1, below.
With HepG-2 (Hepatocellular carcinoma), HCT-116 (colon carcinoma), and MCF7 (breast adenocarcinoma), as human cancer cell lines, the antitumor potential of PtL was studied against their growth by applying a spectrometric tool. Using SRB (sulforhodamine-B-stain) was essential in the spectrometric studies at a specific wavelength (564 nm, the optimized absorption wavelength). Recording the corresponded absorbance (A) at 564 nm was accomplished using a UV/Vis. spectrophotometer, UV-1800 mode Shimadzu with a mono-cell holder. […]

- IC50: 7.5 ± 0.1 µM
Structure (SMILES): CC[C@]1(O)C[C@@H]2CN(CCc3c([nH]c4ccccc34)[C@@](C(=O)OC)(c3cc4c(cc3OC)N(C)[C@H]3[C@@](O)(C(=O)OC)[C@H](OC(C)=O)[C@]5(CC)C=CCN6CC[C@]43[C@@H]65)C2)C1 [Vinblastine, vinblastine]
